Drawing on US4515793A, “Phenylpiperazines which are useful in the treatment of schistosomiasis” (Edna McConnell Clark Foundation, priority 1983, dated 1985), this text covers inhibition in vivo for 19 molecules.

This test has as its system S. mansoni. Kind of test: antischistosomal activity in mice (live worm burden, single oral dose). In kind it is in vivo, S. mansoni (host: CD1 white female mice). The conditions noted are these: Schistosoma mansoni, read-out: % Reduction Live Worm Burden; for inhibition in vivo at 160 mg/kg: mice (footnote, 125 mg/kg column). Here is the method: Tests were conducted to determine the antischistosomal activity in mice and monkeys. The results of the mice tests are reported in Tables 1 to 4 along with the chemical identifications of the compounds synthesized and tested.
The mice tests were conducted as follows:
A. Preinfection Procedures: Purina Laboratory chow (Ralston-Purina) and water were given ad libitum. All mice were housed in hanging stainless steel cages, without bedding, five per cage. They were kept in a ward with an ambient temperature of 75° F. and a relative humidity of 50-55%. Therapeutic treatment was given on Day 40 post-infection.
B. Experimental Procedures: CD1 white female mice were exposed by the tail immersion method for 30 minutes to 80 individually counted S. mansoni cercariae (WRAIR laboratory strain). The cercariae were obtained from pools of no less than 25 Biophalaria glabrata snails. Each experiment consisted of 118 mice divided into infected/water treated and infected/vehicle-treated controls, and infected/drug-treated groups (two dose levels) for six compounds. Groups of 12 mice each were treated with a compound synthesized and provided by the Warner-Lambert Company, Ann Arbor, Mich. at two dose levels. At the same time, five mice were sacrificed to establish worm burdens as infection controls. Three weeks after treatment, all remaining mice were sacrificed and perfused. Gross pathology (liver and intestines) was noted and graded (0 to +3). Worm burdens were determined and the sex of the worms recorded. Following perfusions the liver and intestines were removed and examined for the presence of […] or dead worms. […] Drugs were administered orally in Emulphor EL.
C. Drug Treatment: Treatment consisted of a single oral dose. Each drug was give initially at two dose levels, 40 mg/kg and 125 mg/kg, SID×1.
D. Criteria Used to Evaluate Therapeutic Effectiveness:
Evaluation of activity was determined by examination of the animals at 23 to 28 days after treatment. The schistosomes remaining alive after treatment were counted in the perfusates of the hepatic portal system and in press preparation of the livers. In the same preparations, the relative numbers of dead and/or encapsulated (i.e., worms may or may not be dead) parasites and the relative degree of pathology were ascertained. The efficacy of each treatment was that percentage of the control infection represented by the difference between numbers of parasites recovered from control (H2 O+vehicle) and treated animals. Thus, % efficacy is: [formula]

[1] abbreviates: 40 mg/kg, single oral dose, mice.
Setting [2] is: 125 mg/kg, single oral dose, mice.

Read-outs that look alike come from different tables or passages of the source.

`Nc1cc(C(=O)CN2CCN(c3ccc(CO)c(Cl)c3)CC2)ccc1Cl` [compound 26]: under setting [1], the inhibition in vivo at 40 mg/kg is -12%. Further, under setting [2], the inhibition in vivo at 125 mg/kg came out at 45%.
Regarding `Cc1cc(C)c(C(=O)CN2CCN(c3ccc(CO)c(Cl)c3)CC2)c(C)c1` [compound 21], the inhibition in vivo at 40 mg/kg under setting [1] was 27%. Under setting [2], the inhibition in vivo at 125 mg/kg stood at 78%.
Taken in the same sequence, the figures for `O=C(CN1CCN(c2ccc(CO)c(Cl)c2)CC1)c1ccc2c(c1)Sc1ccccc1S2` [compound 55] were 54% and 68%.
On to `O=C(CCN1CCN(c2ccc(CO)c(Cl)c2)CC1)c1ccc(Cl)cc1Cl` [compound 39], for which the inhibition in vivo at 20 mg/kg (single oral dose, mice) was 70%. Also, under setting [1], the inhibition in vivo at 40 mg/kg is 86%. For the same molecule, under setting [2], the inhibition in vivo at 125 mg/kg came to 94%.
Consider `O=C1c2ccccc2CCC1N1CCN(c2ccc(CO)c(Cl)c2)CC1` (stereo not shown) [compound 22], for which the inhibition in vivo at 40 mg/kg was found to be 73% and the inhibition in vivo at 125 mg/kg came out at 87%.
As to `O=C(CN1CCN(c2ccc(CO)c(Cl)c2)CC1)c1cccc([N+](=O)[O-])c1` [Cpd. 12, 2-[4-[3-chloro-4-(hydroxymethyl)phenyl]-1-piperazinyl]-1(3-nitrophenyl)ethanone], the inhibition in vivo at 40 mg/kg under setting [1] was determined as 31%. Under setting [2], the inhibition in vivo at 125 mg/kg was 73%.
With `O=C(CN1CCN(c2ccc(CO)c(Cl)c2)CC1)c1ccc(C(F)(F)F)cc1` [compound 15], the inhibition in vivo at 40 mg/kg under setting [1] is 43%. Moreover, the inhibition in vivo at 125 mg/kg under setting [2] is 79%.
Take `O=C(CCN1CCN(c2ccc(CO)c(Cl)c2)CC1)c1ccc2ccccc2c1` [compound 36]: the inhibition in vivo at 20 mg/kg (single oral dose, mice) amounted to 75%. The inhibition in vivo at 40 mg/kg under setting [1] turned out to be 82%. The inhibition in vivo at 125 mg/kg under setting [2] is 95%.
`O=C(CN1CCN(c2ccc(CO)c(Cl)c2)CC1)c1ccc(I)s1` [compound 48]: under setting [1], the inhibition in vivo at 40 mg/kg was -20%. Further, under setting [2], the inhibition in vivo at 125 mg/kg turned out to be 30%.
Taken in the same sequence, the figures for `Cc1ccc(C(=O)CCN2CCN(c3ccc(CO)c(Cl)c3)CC2)cc1` [compound 30] were 75% and 96%.
Regarding `O=C(CCN1CCN(c2ccc(CO)c(Cl)c2)CC1)c1ccccc1` [compound 29], the inhibition in vivo at 40 mg/kg under setting [1] amounted to 69%. Besides, under setting [2], the inhibition in vivo at 125 mg/kg turned out to be 89%.
On to `O=C(CCN1CCN(c2ccc(CO)c(Cl)c2)CC1)c1ccco1` [Cpd. 57], for which the inhibition in vivo at 20 mg/kg (single oral dose, mice) came to 60%. In addition, the inhibition in vivo at 40 mg/kg under setting [1] worked out at 85%. Moreover, the inhibition in vivo at 125 mg/kg under setting [2] turned out to be 98%.
As for `O=C(CCN1CCN(c2ccc(CO)c(Cl)c2)CC1)c1ccc(Cl)c([N+](=O)[O-])c1` [Cpd. 35], the inhibition in vivo at 40 mg/kg under setting [1] came out at 79%. Also, the inhibition in vivo at 125 mg/kg under setting [2] was 98%.
`O=C(CCN1CCN(c2ccc(CO)c(Cl)c2)CC1)c1cc(Cl)ccc1Cl` [compound 43]: the inhibition in vivo at 20 mg/kg (single oral dose, mice) amounted to 84%. The inhibition in vivo at 40 mg/kg under setting [1] is 80%. The inhibition in vivo at 125 mg/kg under setting [2] was determined as 98%.
Turning to `COc1cc(C(=O)CN2CCN(c3ccc(CO)c(Cl)c3)CC2)cc(OC)c1OC` [compound 10], under setting [1], the inhibition in vivo at 40 mg/kg is -23%. Moreover, the inhibition in vivo at 160 mg/kg (single oral dose) amounted to 13%.
Turning to `O=C(CN1CCN(c2ccc(CO)c(Cl)c2)CC1)c1ccc(Br)s1` [compound 47], under setting [1], the inhibition in vivo at 40 mg/kg turned out to be 35%. For the same molecule, under setting [2], the inhibition in vivo at 125 mg/kg was 93%.
In the case of `O=C(CCN1CCN(c2ccc(CO)c(Cl)c2)CC1)c1ccc(Br)cc1` [compound 42], for the setting “single oral dose, mice”, the inhibition in vivo at 20 mg/kg amounted to 82%. Also, the inhibition in vivo at 40 mg/kg under setting [1] was 84%. The inhibition in vivo at 125 mg/kg under setting [2] is 98%.
As to `O=C(CCCN1CCN(c2ccc(CO)c(Cl)c2)CC1)c1ccc(Cl)cc1` [Cpd. 59, 1-(4-Chlorophenyl)-4-[4-[3-chloro-4-(hydroxymethyl)phenyl]-1-piperazinyl]-1-butanone], the inhibition in vivo at 40 mg/kg under setting [1] came to 30%. For the same molecule, under setting [2], the inhibition in vivo at 125 mg/kg stood at 68%.
On to `O=C(CN1CCN(c2ccc(CO)c(Cl)c2)CC1)c1ccc(Cl)c([N+](=O)[O-])c1` [Cpd. 14], for which, under setting [1], the inhibition in vivo at 40 mg/kg is 56%. The inhibition in vivo at 160 mg/kg (single oral dose) was found to be 99%.
